The values that follow come from paper PMC3748076 (2013).

Test [1] concerns WT 39-mer Bcl-2 promoter sequence G-quadruplex (39Bcl-2) (DNA, G4) AGGGGCGGGCGCGGGAGGAAGGGGGCGGGAGCGGGGCTG
Kind of test: ESI-MS. The following applies: 50 mM ammonium acetate, 20% methanol, pH about 7, 80 µM DNA, 320 µM porphyrin.

Test [2] has the same test system. Description: ITC. The following applies: 130 mM KCl, 20 mM potassium phosphate, 2 mM K4EDTA, pH 7.0, 25 °C.

Regarding `C[n+]1ccc(-c2c3nc(c(-c4cc[n+](C)cc4)c4ccc([nH]4)c(-c4cc[n+](C)cc4)c4nc(c(-c5cc[n+](C)cc5)c5ccc2[nH]5)C=C4)C=C3)cc1`, the binding entry in test [1] (no free DNA seen) was “yes”. For the same molecule, in test [2] (site 1 of 2 (two equivalent sites per mode)), the K1 is recorded as 37.0 ± 4.0 × 10^5.
As to `C[n+]1cccc(-c2c3nc(c(-c4ccc[n+](C)c4)c4ccc([nH]4)c(-c4ccc[n+](C)c4)c4nc(c(-c5ccc[n+](C)c5)c5ccc2[nH]5)C=C4)C=C3)c1`, in test [1] (some free DNA seen), the binding entry is “yes”. For the same molecule, the K1 in test [2] (two equivalent sites) was 2.6 ± 0.5 × 10^5.
For `C[n+]1ccccc1-c1c2nc(c(-c3cccc[n+]3C)c3ccc([nH]3)c(-c3cccc[n+]3C)c3nc(c(-c4cccc[n+]4C)c4ccc1[nH]4)C=C3)C=C2`, in that order: “yes” and 0.7 ± 0.5 × 10^5.
